Assays:
[1] = system: Ishikawa-Var-I cells; conditions: cited from earlier work
[2] = target: T1, human α oestrogen receptor (Homo sapiens, UniProt P03372); experiment: Reportergen assay for oestrogenic activity with transfected yeast cells; assay type: cell-based; conditions: yeast cells expressing human α oestrogen receptor, β galactosidase reporter, 72 hours at 32° C.
T1 construct: expressed in transfected cells; host or cells: yeast cells (saccharomyces)
T1 sequence (P03372 1-595): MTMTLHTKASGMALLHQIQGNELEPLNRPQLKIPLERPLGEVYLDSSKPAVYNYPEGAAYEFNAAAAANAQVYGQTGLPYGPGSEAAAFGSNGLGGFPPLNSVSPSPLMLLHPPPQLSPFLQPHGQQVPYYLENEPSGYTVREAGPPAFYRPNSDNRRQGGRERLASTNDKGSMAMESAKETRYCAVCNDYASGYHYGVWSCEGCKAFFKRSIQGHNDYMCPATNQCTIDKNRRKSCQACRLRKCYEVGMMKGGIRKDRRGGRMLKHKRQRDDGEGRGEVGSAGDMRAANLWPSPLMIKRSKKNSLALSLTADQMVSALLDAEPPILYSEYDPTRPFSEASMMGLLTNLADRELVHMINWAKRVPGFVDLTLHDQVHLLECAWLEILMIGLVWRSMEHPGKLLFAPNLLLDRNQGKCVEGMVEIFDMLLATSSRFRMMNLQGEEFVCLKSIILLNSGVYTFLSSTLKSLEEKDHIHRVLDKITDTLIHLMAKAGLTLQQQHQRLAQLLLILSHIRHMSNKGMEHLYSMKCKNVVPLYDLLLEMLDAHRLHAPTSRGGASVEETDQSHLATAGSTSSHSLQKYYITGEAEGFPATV
Method: Testing the ethylacetate extracts produced for oestrogenic activity with transfected yeast cells, which express the human α oestrogen receptor.
The testing of extracts for oestrogenic properties was performed with a Reportergen assay, using yeast cells (saccharomyces). These cells are stable with the human α oestrogen receptor and an expression plasmid which contains an oestrogen response element and the gene for the enzyme β galactosidase. All samples were dissolved in DMSO at a concentration of 20 mg/ml, and were given undiluted or after diluting with DMSO at the ratio of 1/10, 1/100 or at a volume of 1 μl to 100 μl culture medium in 96-well flat-bottom micro-titre dishes. Next, 100 μl yeast suspension and the chromogenous substrate chlorophenolred-β-D-galactopyranoside were added. […] The yeast cells were incubated for 72 hours at 32° C., after which absorption of the medium was measured at 540 nm in a micro-titre dish photometer. The samples were sometimes checked twice.

[3] = animal studies; cited from earlier work

CC(C)=CCc1c(O)cc(O)c2c1O[C@H](c1ccc(O)cc1)CC2=O [8-prenylnaringenine]
oestrogenic effect compared with 17β oestradiol ([1]; versus 17β oestradiol): only a slightly weaker effect than 17β oestradiol | oestrogenic potency compared with known phyto-oestrogens ([1]; versus coumestrol, genistein or daidzein): significantly more active than the phyto-oestrogens known so far

OC[C@H]1O[C@@H](Oc2ccc3c(c2)OC[C@H]2c4cc5c(cc4O[C@@H]32)OCO5)[C@H](O)[C@@H](O)[C@@H]1O [maackiain glucoside]
oestrogenic activity in yeast assay [2]: relevant to the effectiveness of the extract

Oc1ccc2c(c1)OC[C@H]1c3cc4c(cc3O[C@@H]21)OCO4 [maackiain]
oestrogenic activity in yeast assay [2]: relevant to the effectiveness of the extract

O=C1CCC[C@@H]2[C@H]3CCC[N+]4([O-])CCC[C@@H](CN12)[C@@H]34 (some centres unmarked) [oxymatrine]
toxic effects [3]: toxic effects could be shown

Source: patent US7381429B2, “Extracts from sophora species, method for producing the same and their use” (Dr. Willmar Schwabe GmbH & Co., priority 2000, dated 2008)
